Like-named read-outs stand apart in the source and are kept apart here.
Columns and labels:
Human mTOR (FLAG-TOR) = molecular target: T1, Human mTOR (FLAG-TOR) (Homo sapiens, UniProt P42345); assay: Human mTOR kinase assay with purified enzyme, DELFIA format; assay type: biochemical
T1 construct: FLAG
Outline: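 DELFIA readout: Eu-anti-P(T389)-S6K antibody (40 ng/mL, 1 h) on captured His6-S6K from the stopped reaction. Kinase step used purified FLAG-tagged human mTOR with test compound in HEPES (pH 7.4)/MnCl2/DTT buffer, 2 h at room temperature (linear 1–6 h), terminated by EDTA/EGTA.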

PI3K [1] = molecular target: T2, PI3K (Homo sapiens, UniProt P42336); assay: Fluorescence polarization assay for PI3K; assay type: biochemical; details: read-out: PI3 Kinase α IC50
T2 construct: PI3 Kinase α IC50; other: PI3 Kinase α; other: PI3 Kinase α isoform, fluorescence polarization
T2 sequence (P42336 whole entry, canonical isoform): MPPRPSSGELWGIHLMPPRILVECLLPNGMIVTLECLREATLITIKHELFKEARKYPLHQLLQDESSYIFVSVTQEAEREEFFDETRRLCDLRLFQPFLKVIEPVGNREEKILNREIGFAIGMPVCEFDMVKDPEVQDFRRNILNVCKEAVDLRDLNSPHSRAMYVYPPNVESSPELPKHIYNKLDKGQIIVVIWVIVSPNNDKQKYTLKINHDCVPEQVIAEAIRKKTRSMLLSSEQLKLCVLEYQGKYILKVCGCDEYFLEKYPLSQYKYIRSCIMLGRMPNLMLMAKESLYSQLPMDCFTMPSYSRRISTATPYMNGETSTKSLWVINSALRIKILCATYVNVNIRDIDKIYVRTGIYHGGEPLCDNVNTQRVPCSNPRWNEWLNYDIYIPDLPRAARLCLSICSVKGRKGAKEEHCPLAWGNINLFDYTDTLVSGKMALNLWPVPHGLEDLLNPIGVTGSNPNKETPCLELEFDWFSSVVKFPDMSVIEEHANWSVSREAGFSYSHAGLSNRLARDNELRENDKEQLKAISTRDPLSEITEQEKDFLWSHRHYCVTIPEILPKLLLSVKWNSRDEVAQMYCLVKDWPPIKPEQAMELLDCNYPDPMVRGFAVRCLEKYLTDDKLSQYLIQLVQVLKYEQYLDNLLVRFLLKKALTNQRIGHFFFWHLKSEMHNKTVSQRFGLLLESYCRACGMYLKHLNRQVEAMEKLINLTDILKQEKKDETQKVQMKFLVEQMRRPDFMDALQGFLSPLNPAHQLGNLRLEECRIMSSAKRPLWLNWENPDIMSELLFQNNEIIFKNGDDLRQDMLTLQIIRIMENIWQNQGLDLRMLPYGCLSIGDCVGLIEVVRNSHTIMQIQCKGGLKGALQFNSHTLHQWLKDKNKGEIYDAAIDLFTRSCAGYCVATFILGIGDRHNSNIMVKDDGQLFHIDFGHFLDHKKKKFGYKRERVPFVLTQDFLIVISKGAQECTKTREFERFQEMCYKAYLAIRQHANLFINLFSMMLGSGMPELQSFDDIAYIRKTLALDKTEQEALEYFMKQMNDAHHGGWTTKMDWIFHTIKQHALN
Outline: (§1)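 Fluorescence-polarization competition readout: after 30–60 min of PIP2/ATP turnover in 1% DMSO, a stop mix with GST-GRP (70 nM) and red probe (10 nM) was added.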

PI3K [2] = molecular target: T3, PI3K (Homo sapiens, UniProt P48736); assay: Fluorescence polarization assay for PI3K; assay type: biochemical; details: read-out: PI3 Kinase γ IC50
T3 construct: PI3 Kinase γ IC50; other: PI3 Kinase γ; other: PI3 Kinase γ isoform, fluorescence polarization
T3 sequence (P48736 whole entry, canonical isoform): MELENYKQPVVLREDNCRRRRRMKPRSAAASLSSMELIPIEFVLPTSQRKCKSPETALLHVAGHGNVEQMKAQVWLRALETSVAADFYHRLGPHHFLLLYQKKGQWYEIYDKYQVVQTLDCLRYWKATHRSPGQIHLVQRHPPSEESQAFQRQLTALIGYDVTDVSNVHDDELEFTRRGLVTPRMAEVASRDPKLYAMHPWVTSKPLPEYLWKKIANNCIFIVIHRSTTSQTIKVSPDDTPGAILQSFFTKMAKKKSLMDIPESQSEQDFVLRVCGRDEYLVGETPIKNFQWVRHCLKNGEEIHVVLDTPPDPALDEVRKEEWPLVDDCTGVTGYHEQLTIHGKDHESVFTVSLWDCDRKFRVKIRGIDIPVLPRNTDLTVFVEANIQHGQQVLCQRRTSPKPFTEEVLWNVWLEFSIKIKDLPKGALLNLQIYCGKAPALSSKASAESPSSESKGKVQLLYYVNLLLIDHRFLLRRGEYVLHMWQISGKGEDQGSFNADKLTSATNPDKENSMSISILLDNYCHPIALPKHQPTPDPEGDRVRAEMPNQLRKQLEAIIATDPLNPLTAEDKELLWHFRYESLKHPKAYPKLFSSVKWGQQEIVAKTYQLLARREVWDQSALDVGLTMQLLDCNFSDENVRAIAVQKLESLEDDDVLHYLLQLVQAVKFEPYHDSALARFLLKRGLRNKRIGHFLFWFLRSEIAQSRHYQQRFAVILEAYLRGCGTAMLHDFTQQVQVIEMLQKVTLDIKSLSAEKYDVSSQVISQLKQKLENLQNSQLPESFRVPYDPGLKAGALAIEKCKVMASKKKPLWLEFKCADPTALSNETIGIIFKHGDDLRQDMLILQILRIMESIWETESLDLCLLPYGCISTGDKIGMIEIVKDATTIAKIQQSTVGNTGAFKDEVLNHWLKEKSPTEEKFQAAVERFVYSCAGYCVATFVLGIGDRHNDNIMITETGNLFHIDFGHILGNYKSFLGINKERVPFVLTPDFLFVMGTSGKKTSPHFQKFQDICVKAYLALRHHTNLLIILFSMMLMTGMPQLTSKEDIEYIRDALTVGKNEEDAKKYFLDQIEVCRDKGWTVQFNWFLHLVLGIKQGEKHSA
Outline: as §1

prostate line LNCap = assay: In vitro cell culture growth assay (MTS), LNCap; assay type: cell-based; details: Homo sapiens, LNCaP, 72 h, LNCap cells, three days after drug treatment
Outline: (§2)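 Viable cell density is assessed three days after inhibitor addition via MTS conversion, normalised to vehicle-treated cells.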

breast line MDA468 = assay: In vitro cell culture growth assay (MTS), MDA468; assay type: cell-based; details: Homo sapiens, 72 h, MDA468 cells, three days after drug treatment
Outline: as §2

[3] = purified human mTOR enzyme, DELFIA format
[4] = PI3 Kinase α isoform, fluorescence polarization
[5] = PI3 Kinase γ isoform, fluorescence polarization

Structure (SMILES) | IC50 (Human mTOR (FLAG-TOR)) | IC50 (PI3K [1]; PI3 Kinase α) | IC50 (PI3K [2]; PI3 Kinase γ) | IC50 (prostate line LNCap) | IC50 (breast line MDA468) | IC50 (Human mTOR (FLAG-TOR); [3]) | IC50 (PI3K [1]; [4]) | IC50 (PI3K [2]; [5])
COC(=O)N1CCC(n2ncc3c(N4CC5CCC(C4)O5)nc(-c4ccc(NC(=O)OCCO)cc4)nc32)CC1 [Example 112, methyl 4-[6-(4-{[(2-hydroxyethoxy)carbonyl]amino}phenyl)-4-(8-oxa-3-azabicyclo[3.2.1]oct-3-yl)-1H-pyrazolo[3,4-d]pyrimidin-1-yl]piperidine-1-carboxylate] | 0.75 nM | 1260 nM | > 10000 nM | 40 nM | 1050 nM | – | – | –
COC(=O)N1CCC(n2ncc3c(N4C5CCC4COC5)nc(-c4ccc(NC(=O)NC5CC5)cc4)nc32)CC1 [Example 359, methyl 4-[6-{4-[(cyclopropylcarbamoyl)amino]phenyl}-4-(3-oxa-8-azabicyclo[3.2.1]oct-8-yl)-1H-pyrazolo[3,4-d]pyrimidin-1-yl]piperidine-1-carboxylate] | – | – | – | 6 nM | 36 nM | 0.705 nM | 5640 nM | 7790 nM
O=C(Nc1ccc(-c2nc(N3CC4CCC(C3)O4)c3cnn(C4CCN(Cc5cccnc5)CC4)c3n2)cc1)Nc1cccnc1 [Example 18, 1-(4-{4-(8-oxa-3-azabicyclo[3.2.1]oct-3-yl)-1-[1-(pyridin-3-ylmethyl)piperidin-4-yl]-1H-pyrazolo[3,4-d]pyrimidin-6-yl}phenyl)-3-pyridin-3-ylurea] | 0.25 nM | 326 nM | 3480 nM | < 0.8 nM | < 0.8 nM | – | – | –
CC(C)C(=O)N1CCC(n2ncc3c(N4CC5CCC(C4)O5)nc(-c4ccc(NC(=O)Nc5cccnc5)cc4)nc32)CC1 [Example 88, 1-{4-[1-(1-isobutyrylpiperidin-4-yl)-4-(8-oxa-3-azabicyclo[3.2.1]oct-3-yl)-1H-pyrazolo[3,4-d]pyrimidin-6-yl]phenyl}-3-pyridin-3-ylurea] | 0.3 nM | 454 nM | 3820 nM | 60 nM | 130 nM | – | – | –
Nc1ncc(-c2nc(N3CC4CCC(C3)O4)c3sccc3n2)cn1 [Example 421, 5-[4-(8-oxa-3-azabicyclo[3.2.1]oct-3-yl)thieno[3,2-d]pyrimidin-2-yl]pyrimidin-2-amine] | – | – | – | 1200 nM | 3900 nM | 51 nM | 246 nM | 9180 nM
CC(C)(C)OC(=O)N1CC2CN(c3nc(-c4ccc(NC(=O)Nc5ccncc5)cc4)nc4c3cnn4CC(F)(F)F)CC(C1)O2 [Example 340, tert-butyl 7-[6-{4-[(pyridin-4-ylcarbamoyl)amino]phenyl}-1-(2,2,2-trifluoroethyl)-1H-pyrazolo[3,4-d]pyrimidin-4-yl]-9-oxa-3,7-diazabicyclo[3.3.1]nonane-3-carboxylate] | – | – | – | 5200 nM | 5200 nM | 305 nM | 5080 nM | 5760 nM
CCn1ncc2c(N3CC4CCC(C3)O4)nc(-c3ccc(NC(=O)Nc4ccncc4)cc3)nc21 [Example 48, 1-{4-[1-ethyl-4-(8-oxa-3-azabicyclo[3.2.1]oct-3-yl)-1H-pyrazolo[3,4-d]pyrimidin-6-yl]phenyl}-3-pyridin-4-ylurea] | 0.16 nM | 134 nM | 1120 nM | < 0.8 nM | < 0.8 nM | – | – | –
COC1CCC(n2ncc3c(N4CC5CCC(C4)O5)nc(-c4ccc(NC(=O)Nc5ccc(C(N)=O)cc5)cc4)nc32)CC1 (centres unmarked) [Example 306, 4-[({4-[1-(4-methoxycyclohexyl)-4-(8-oxa-3-azabicyclo[3.2.1]oct-3-yl)-1H-pyrazolo[3,4-d]pyrimidin-6-yl]phenyl}carbamoyl)amino]benzamide] | – | – | – | < 1 nM | 8 nM | 0.079 nM | 88 nM | 1270 nM
O=C(NCCF)Nc1ccc(-c2nc(N3CC4CCC(C3)O4)c3cnn(C4CCC5(CC4)OCCO5)c3n2)cc1 [Example 124, 1-{4-[1-(1,4-dioxaspiro[4.5]dec-8-yl)-4-(8-oxa-3-azabicyclo[3.2.1]oct-3-yl)-1H-pyrazolo[3,4-d]pyrimidin-6-yl]phenyl}-3-(2-fluoroethyl)urea] | 0.225 nM | 5130 nM | > 10000 nM | 1 nM | 20 nM | – | – | –
CCNC(=O)Nc1ccc(-c2nc(N3CC4CCC(C3)O4)c3cnn(C4CCN(C(=O)OC(C)C)CC4)c3n2)cc1 [Example 67, isopropyl 4-[6-{4-[(ethylcarbamoyl)amino]phenyl}-4-(8-oxa-3-azabicyclo[3.2.1]oct-3-yl)-1H-pyrazolo[3,4-d]pyrimidin-1-yl]piperidine-1-carboxylate] | 0.23 nM | 2460 nM | 9500 nM | 17 nM | 150 nM | – | – | –
CC(C)n1ncc2c(N3CC4CCC(C3)O4)nc(-c3ccc(NC(=O)OCCO)cc3)nc21 [Example 144, 2-hydroxyethyl {4-[1-isopropyl-4-(8-oxa-3-azabicyclo[3.2.1]oct-3-yl)-1H-pyrazolo[3,4-d]pyrimidin-6-yl]phenyl}carbamate] | 0.27 nM | 831 nM | 11000 nM | 23 nM | 270 nM | – | – | –
CC(C)C(=O)N1CCC(n2ncc3c(N4CC5CCC(C4)O5)nc(-c4ccc(NC(=O)NCCF)cc4)nc32)CC1 [Example 85, 1-(2-fluoroethyl)-3-{4-[1-(1-isobutyrylpiperidin-4-yl)-4-(8-oxa-3-azabicyclo[3.2.1]oct-3-yl)-1H-pyrazolo[3,4-d]pyrimidin-6-yl]phenyl}urea] | 0.47 nM | 2640 nM | > 10000 nM | 90 nM | 300 nM | – | – | –
CC(C)(C)OC(=O)N1CCC(n2ncc3c(N4CC5CCC(C4)O5)nc(-c4ccc(NC(=O)NCCF)cc4)nc32)CC1 [Example 21, tert-butyl 4-[6-(4-{[(2-fluoroethyl)carbamoyl]amino}phenyl)-4-(8-oxa-3-azabicyclo[3.2.1]oct-3-yl)-1H-pyrazolo[3,4-d]pyrimidin-1-yl]piperidine-1-carboxylate] | 0.24 nM | 3960 nM | 11000 nM | 12 nM | 120 nM | – | – | –
N#CCCn1ncc2c(N3CC4CCC(C3)O4)nc(-c3ccc(NC(=O)Nc4ccc(CO)cc4)cc3)nc21 [Example 218, 1-{4-[1-(2-cyanoethyl)-4-(8-oxa-3-azabicyclo[3.2.1]oct-3-yl)-1H-pyrazolo[3,4-d]pyrimidin-6-yl]phenyl}-3-[4-(hydroxymethyl)phenyl]urea] | 0.122 nM | 40 nM | 2200 nM | < 1 nM | < 1 nM | – | – | –
CCn1ncc2c(N3CC4CCC(C3)O4)nc(-c3ccc(NC(=O)NCC(=O)N4CCN(C)CC4)cc3)nc21 [Example 276, 1-{4-[1-ethyl-4-(8-oxa-3-azabicyclo[3.2.1]oct-3-yl)-1H-pyrazolo[3,4-d]pyrimidin-6-yl]phenyl}-3-[2-(4-methylpiperazin-1-yl)-2-oxoethyl]urea] | 93 nM | 3980 nM | 9000 nM | 7500 nM | 30000 nM | – | – | –
O=C(Nc1ccncc1)Nc1ccc(-c2nc(N3CC4CCC(C3)O4)c3cnn(C4CCC5(CC4)OCCO5)c3n2)cc1 [Example 128, 1-{4-[1-(1,4-dioxaspiro[4.5]dec-8-yl)-4-(8-oxa-3-azabicyclo[3.2.1]oct-3-yl)-1H-pyrazolo[3,4-d]pyrimidin-6-yl]phenyl}-3-pyridin-4-ylurea] | 0.125 nM | 220 nM | 1930 nM | < 1 nM | 1 nM | – | – | –
